Assay results as given in patent publication US20170105953A1, “METHOD FOR SUPPRESSING DIABETES AND/OR HEPATIC LIPIDS USING TORMENTIC ACID” (priority 2015, published 2017).

Columns and labels:
Akt = assay: western blot, phospho-Akt (Ser473)/total-Akt in skeletal muscle; type: in vivo, C57BL/6J mice; conditions: HF diet-fed mice
Text: (§1) FIG. 4A is a western blot analysis showing the protein contents of GLUT4 in skeletal muscle, and phospho-AMPK (Thr172) and total-AMPK (Thr172) in both liver tissue and skeletal muscle, and phospho-Akt (Ser473) and total-Akt (Ser473) in skeletal muscle of the mice receiving tormentic acid (PTA) by oral gavage for 4 weeks; and
(§2) FIG. 4B is a diagram showing the protein contents of GLUT4 in skeletal muscle, the expression levels of phospho-AMPK (Thr172) to total AMPK in both liver tissue and skeletal muscle, and quantified results from FIG. 4A for the phosphorylation status of Akt (p-Akt normalized to total Akt (pAkt/Akt)) in skeletal muscle of the mice receiving tormentic acid (PTA) by oral gavage for 4 weeks.
(§3) For part 2, C57BL/6J mice (4 weeks old) were obtained from the National Laboratory Animal Breeding and Research Center. The mice were divided randomly into two groups after 7 days acclimation. The control (CON) group (n=9) was fed a low-fat diet (diet 12450B, Research Diets, Inc., New Brunswick, N.J., USA), whereas the experimental group was fed a 45% high-fat diet (diet 12451, Research Diets, Inc.) for 12 weeks. The compositions of the experimental diets are given in previous studies. […]

AMPK = assay: western blot, phospho-AMPK (Thr172)/total-AMPK in liver tissue and skeletal muscle; type: in vivo, C57BL/6J mice; conditions: HF diet-fed mice
Text: as §1, §2
(§4) For part 2, C57BL/6J mice (4 weeks old) were obtained from the National Laboratory Animal Breeding and Research Center. The mice were divided randomly into two groups after 7 days acclimation. The control (CON) group (n=9) was fed a low-fat diet (diet 12450B, Research Diets, Inc., New Brunswick, N.J., USA), whereas the experimental group was fed a 45% high-fat diet (diet 12451, Research Diets, Inc.) for 12 weeks. The compositions of the experimental diets are given in previous studies. After 8 weeks, the high-fat treated mice were randomly subdivided into four groups (n=9) including PTA1 (0.06 g/kg/day), PTA2 (0.12 g/kg/day) or rosiglitazone (Rosi; 1% methylcellulose, 10 mg/kg body weight) (GlaxoSmithKline) or vehicle and treated by oral gavage one time per day from the 9th to 12th weeks, while the mice were still on the high-fat diet, whereas the CON and high-fat control (HF) mice were treated with vehicle only. At the end, food was withheld from the animals (from 10 p.m. to 10 a.m.). The next day, the mice were sacrificed for blood and tissue collection and analysis. Livers, skeletal muscles, and white adipose tissues (WATs) (including epididymal, mesenteric, and retroperitoneal WAT) were weighed and excised, followed by immediate freezing, and kept at −80° C. for target gene analysis. Heparin (30 units/mL) (Sigma) was added to blood samples. Plasma samples were collected within 30 min by centrifugation at 1600 g for 15 min at 4° C. Plasma was obtained for insulin and leptin assay.

FAS = assay: semiquantitative RT-PCR, liver FAS mRNA; type: in vivo, C57BL/6J mice; conditions: HF diet-fed mice, normalized to GAPDH, vs HF group
Text: as §3
(§5) Total RNA from the liver tissue was isolated with a Trizol reagent (Molecular Research Center, Inc., Cincinnati, Ohio, USA) according to the manufacturer's directions. The integrity of the extracted total RNA was examined by 2% agarose gel electrophoresis, and the RNA concentration was determined by ultraviolet (UV) light absorbency at 260 and 280 nm (spectrophotometer U-2800A, Hitachi). […] The relative density of the band was evaluated using AlphaDigiDoc 1201 software (Alpha Innotech Co., San Leandro, Calif., USA). All of the measured PCR products were normalized to the amount of cDNA of GAPDH in each sample. […]

[1] = tested on: epididymal WAT and liver tissue; assay: histopathology of epididymal WAT and liver tissue; type: in vivo; conditions: HF diet-fed C57BL/6J mice; for hepatocellular ballooning mean score: grade 0 none, 1 a few cells, 2 many cells
Text: as §4
Small pieces of epididymal WAT and liver tissue were fixed with formalin (200 g/kg) neutral buffered solution and embedded in paraffin. Sections (8 μm) were cut and stained with hematoxylin and eosin. For microscopic examination, a microscope (Leica, DM2500) was used, and the images were taken using a Leica Digital camera (DFC-425-C).

PPARα = assay: semiquantitative RT-PCR, liver PPARα mRNA; type: in vivo, C57BL/6J mice; conditions: HF diet-fed mice, normalized to GAPDH
Text: as §3, §5

[2] = PTA1 0.06 g/kg/day oral gavage 4 weeks
[3] = PTA2 0.12 g/kg/day oral gavage 4 weeks

C[C@@H]1CC[C@]2(C(=O)O)CC[C@]3(C)C(=CC[C@@H]4[C@@]5(C)C[C@@H](O)[C@H](O)C(C)(C)[C@@H]5CC[C@]43C)[C@@H]2[C@]1(C)O [PTA, tormentic acid]
expression levels of phospho-Akt/total-Akt (Akt; PTA1 0.06 g/kg/day 4 weeks): significantly increased
expression levels of phospho-Akt/total-Akt (Akt; PTA2 0.12 g/kg/day 4 weeks): significantly increased
expression levels of phospho-AMPK/total-AMPK (AMPK; liver tissue, PTA1 0.06 g/kg/day 4 weeks): significantly increase
expression levels of phospho-AMPK/total-AMPK (AMPK; liver tissue, PTA2 0.12 g/kg/day 4 weeks): significantly increase
expression levels of phospho-AMPK/total-AMPK (AMPK; skeletal muscle, PTA1 0.06 g/kg/day 4 weeks): significantly increase
expression levels of phospho-AMPK/total-AMPK (AMPK; skeletal muscle, PTA2 0.12 g/kg/day 4 weeks): significantly increase
mRNA level of FAS in liver (FAS; PTA1 0.06 g/kg/day 4 weeks): significantly decrease
mRNA level of FAS in liver (FAS; PTA2 0.12 g/kg/day 4 weeks): significantly decrease
average area of adipocytes (epididymal WAT) [1, 2]: 2380.9±108.6 μm2
hepatocellular ballooning mean score [1, 2]: 1.0±0.2
average area of adipocytes (epididymal WAT) [1, 3]: 2243.2±100.9 μm^2
hepatocellular ballooning mean score [1, 3]: 0.7±0.2
mRNA levels of PPARα in liver (PPARα; PTA1 0.06 g/kg/day 4 weeks): increased
mRNA levels of PPARα in liver (PPARα; PTA2 0.12 g/kg/day 4 weeks): increased
